# Columns and labels:
# ECa-109 cell line [1] = test: Antiproliferative activity against human EC109 cells assessed as inhibition of cell growth incubated for 72 hrs by SRB assay; format: functional, cell-based; conditions: ECa-109, 72 h
# TE-1 = test: Antiproliferative activity against human TE-1 cells assessed as inhibition of cell growth incubated for 72 hrs by SRB assay; format: functional, cell-based; conditions: TE-1, 72 h
# MGC-803 = test: Antiproliferative activity against human MGC-803 cells assessed as inhibition of cell growth incubated for 72 hrs by SRB assay; format: functional, cell-based; conditions: MGC-803, 72 h
# MCF7 = test: Antiproliferative activity against human MCF7 cells assessed as inhibition of cell growth incubated for 72 hrs by SRB assay; format: functional, cell-based; conditions: MCF7, 72 h
# ECa-109 cell line [2] = test: Induction of apoptosis in human EC109 cells assessed as increase in intracellular ROS level at 5 mM incubated for 24 hrs by DCFH-DA staining based flow cytometry analysis (reference value: 0.6 %); format: functional
# ECa-109 cell line [3] = test: Induction of mitochondrial depolarization in human EC-109 cells assessed as depolarized cell population at 5 mM measured after 24 hrs by JC1 dye based flow cytometry (reference value: 4.2 %); format: functional
# ECa-109 cell line [4] = test: Induction of apoptosis in human EC-109 cells assessed as apoptotic rate at 5 mM after 24 hrs by Annexin V-FITC/propidium iodide staining based flow cytometry (reference value: 5.7 %); format: functional
# ECa-109 cell line [5] = test: Induction of apoptosis in human EC-109 cells assessed as apoptotic rate at 5 mM after 48 hrs by Annexin V-FITC/propidium iodide staining based flow cytometry (reference value: 3.8 %); format: functional
structure (smiles),measurement,setting,value
C=C1C(=O)[C@@]23[C@H](O)C[C@@H]4C(C)(C)CCC[C@@]4(COC(C)=O)[C@@H]2[C@@H](O)C[C@H]1[C@H]3OC(=O)c1ccc(C)cc1,IC50,ECa-109 cell line [1],0.3 µM
same,IC50,TE-1,0.3 µM
same,IC50,MGC-803,0.48 µM
same,IC50,MCF7,0.24 µM
C=C1C(=O)[C@@]23[C@H](O)C[C@@H]4C(C)(C)CCC[C@@]4(COC(C)=O)[C@@H]2[C@@H](O)C[C@H]1[C@H]3OC(=O)CCCBr,IC50,ECa-109 cell line [1],0.76 µM
same,IC50,TE-1,0.47 µM
same,IC50,MGC-803,0.25 µM
same,IC50,MCF7,0.47 µM
C=C1C(=O)[C@@]23[C@H](O)C[C@@H]4C(C)(C)CCC[C@@]4(COC(C)=O)[C@@H]2[C@@H](O)C[C@H]1[C@H]3OC(=O)CCc1ccccc1,IC50,ECa-109 cell line [1],0.68 µM
same,IC50,TE-1,0.72 µM
same,IC50,MGC-803,1.28 µM
same,IC50,MCF7,0.6 µM
C=C1C(=O)[C@@]23[C@H](O)C[C@@H]4C(C)(C)CCC[C@@]4(COC(C)=O)[C@@H]2[C@@H](O)C[C@H]1[C@H]3OC(=O)c1ccccc1C(F)(F)F,IC50,ECa-109 cell line [1],0.42 µM
same,IC50,TE-1,0.32 µM
same,IC50,MGC-803,0.79 µM
same,IC50,MCF7,0.4 µM
C=C1C(=O)[C@@]23[C@H](O)C[C@@H]4C(C)(C)CCC[C@@]4(COC(C)=O)[C@@H]2[C@@H](O)C[C@H]1[C@H]3OC(=O)c1ccc(CBr)cc1,IC50,ECa-109 cell line [1],0.17 µM
same,IC50,TE-1,0.25 µM
same,IC50,MGC-803,0.34 µM
same,IC50,MCF7,0.14 µM
C=C1C(=O)[C@@]23[C@H](O)C[C@@H]4C(C)(C)CCC[C@@]4(COC(C)=O)[C@@H]2[C@@H](O)C[C@H]1[C@H]3OC(=O)c1cccc(C(F)(F)F)c1,IC50,ECa-109 cell line [1],0.33 µM
same,IC50,TE-1,0.37 µM
same,IC50,MGC-803,1.15 µM
same,IC50,MCF7,0.29 µM
C=C1C(=O)[C@@]23[C@H](O)C[C@@H]4C(C)(C)CCC[C@@]4(COC(C)=O)[C@@H]2[C@@H](O)C[C@H]1[C@H]3OC(=O)c1ccccc1C,IC50,ECa-109 cell line [1],0.47 µM
same,IC50,TE-1,0.45 µM
same,IC50,MGC-803,0.63 µM
same,IC50,MCF7,0.39 µM
C=C1C(=O)[C@@]23[C@H](O)C[C@@H]4C(C)(C)CCC[C@@]4(COC(C)=O)[C@@H]2[C@@H](O)C[C@H]1[C@H]3OC(=O)c1ccc(OC)c(OC)c1,IC50,ECa-109 cell line [1],0.27 µM
same,IC50,TE-1,0.34 µM
same,IC50,MGC-803,0.57 µM
same,IC50,MCF7,0.14 µM
C=C1C(=O)[C@@]23[C@H](O)C[C@@H]4C(C)(C)CCC[C@@]4(COC(C)=O)[C@@H]2[C@@H](O)C[C@H]1[C@H]3OC(=O)c1ccc(Cl)cc1,IC50,ECa-109 cell line [1],0.33 µM
same,IC50,TE-1,0.38 µM
same,IC50,MGC-803,0.28 µM
same,IC50,MCF7,0.27 µM
C=C1C(=O)[C@@]23[C@H](O)C[C@@H]4C(C)(C)CCC[C@@]4(COC(C)=O)[C@@H]2[C@@H](O)C[C@H]1[C@H]3OC(=O)c1cc(Cl)ccc1OC,IC50,ECa-109 cell line [1],0.56 µM
same,IC50,TE-1,0.46 µM
same,IC50,MGC-803,0.66 µM
same,IC50,MCF7,0.48 µM
C=C1C(=O)[C@@]23[C@H](O)C[C@@H]4C(C)(C)CCC[C@@]4(COC(C)=O)[C@@H]2[C@@H](O)C[C@H]1[C@H]3OC(=O)c1ccccc1,IC50,ECa-109 cell line [1],0.31 µM
same,IC50,TE-1,0.33 µM
same,IC50,MGC-803,0.47 µM
same,IC50,MCF7,0.2 µM
C=C1C(=O)[C@@]23[C@H](O)C[C@@H]4C(C)(C)CCC[C@@]4(COC(C)=O)[C@@H]2[C@@H](O)C[C@H]1[C@H]3OC(=O)c1ccccc1Cl,IC50,ECa-109 cell line [1],0.41 µM
same,IC50,TE-1,0.45 µM
same,IC50,MGC-803,0.71 µM
same,IC50,MCF7,0.41 µM
C=C1C(=O)[C@@]23[C@H](O)C[C@@H]4C(C)(C)CCC[C@@]4(COC(C)=O)[C@@H]2[C@@H](O)C[C@H]1[C@H]3OC(=O)c1ccc(OC)cc1,IC50,ECa-109 cell line [1],0.29 µM
same,IC50,TE-1,0.25 µM
same,IC50,MGC-803,0.46 µM
same,IC50,MCF7,0.23 µM
C=C1C(=O)[C@]23[C@H](O)[C@H]1CC[C@H]2[C@@]12CO[C@]3(O)[C@@H](O)[C@@H]1C(C)(C)CC[C@@H]2O [ORIDONIN],IC50,ECa-109 cell line [1],22 µM
C=C1C(=O)[C@@]23[C@H](O)C[C@@H]4C(C)(C)CCC[C@@]4(COC(C)=O)[C@@H]2[C@@H](O)C[C@H]1[C@H]3OC(=O)c1ccc(Cl)cc1Cl,IC50,ECa-109 cell line [1],4.25 µM
same,IC50,TE-1,1.24 µM
same,IC50,MGC-803,1.15 µM
same,IC50,MCF7,1.17 µM
C=C1C(=O)[C@@]23[C@H](O)C[C@@H]4C(C)(C)CCC[C@@]4(COC(C)=O)[C@@H]2[C@@H](O)C[C@H]1[C@H]3OC(=O)c1cccc(Cl)c1Cl,IC50,ECa-109 cell line [1],0.33 µM
same,IC50,TE-1,0.39 µM
same,IC50,MGC-803,0.69 µM
same,IC50,MCF7,0.31 µM
C=C1C(=O)[C@@]23[C@H](O)C[C@@H]4C(C)(C)CCC[C@@]4(COC(C)=O)[C@@H]2[C@@H](O)C[C@H]1[C@H]3OC(=O)c1cccc(OC)c1,IC50,ECa-109 cell line [1],0.44 µM
same,IC50,TE-1,0.42 µM
same,IC50,MGC-803,0.46 µM
same,IC50,MCF7,0.25 µM
C=C1C(=O)[C@@]23[C@H](O)C[C@@H]4C(C)(C)CCC[C@@]4(COC(C)=O)[C@@H]2[C@@H](O)C[C@H]1[C@H]3OC(=O)c1ccc(Br)cc1,IC50,ECa-109 cell line [1],0.38 µM
same,IC50,TE-1,0.39 µM
same,IC50,MGC-803,0.61 µM
same,IC50,MCF7,0.33 µM
CC(=O)N[C@@H](CS)C(=O)O [ACETYLCYSTEINE],Activity,ECa-109 cell line [2],0.2%
same,Activity,ECa-109 cell line [3],4.8%
same,Activity,ECa-109 cell line [4],6.4%
same,Activity,ECa-109 cell line [5],4.5%
C=C1C(=O)[C@@]23[C@H](O)C[C@@H]4C(C)(C)CCC[C@@]4(COC(C)=O)[C@@H]2[C@@H](O)C[C@H]1[C@H]3OC(=O)c1cccc(F)c1,IC50,ECa-109 cell line [1],1.63 µM
same,IC50,TE-1,1.3 µM
same,IC50,MGC-803,2.35 µM
same,IC50,MCF7,2.23 µM
C=C1C(=O)[C@@]23[C@H](O)C[C@@H]4C(C)(C)CCC[C@@]4(COC(C)=O)[C@@H]2[C@@H](O)C[C@H]1[C@H]3OC(=O)c1ccc(F)cc1,IC50,ECa-109 cell line [1],8.48 µM
same,IC50,TE-1,20.1 µM
same,IC50,MGC-803,0.92 µM
same,IC50,MCF7,1.34 µM
C=C1C(=O)[C@@]23[C@H](O)C[C@@H]4C(C)(C)CCC[C@@]4(COC(C)=O)[C@@H]2[C@@H](O)C[C@H]1[C@H]3OC(=O)c1ccc(C(F)(F)F)cc1,IC50,ECa-109 cell line [1],0.38 µM
same,IC50,TE-1,0.42 µM
same,IC50,MGC-803,0.77 µM
same,IC50,MCF7,0.35 µM
C=C1C(=O)[C@@]23[C@H](O)C[C@@H]4C(C)(C)CCC[C@@]4(COC(C)=O)[C@@H]2[C@@H](O)C[C@H]1[C@H]3OC(=O)c1cccc(Br)c1,IC50,ECa-109 cell line [1],0.24 µM
same,IC50,TE-1,0.16 µM
same,IC50,MGC-803,0.42 µM
same,IC50,MCF7,0.38 µM
C=C1C(=O)[C@@]23[C@H](O)C[C@@H]4C(C)(C)CCC[C@@]4(COC(C)=O)[C@@H]2[C@@H](O)C[C@H]1[C@H]3O,IC50,ECa-109 cell line [1],5.24 µM
same,IC50,TE-1,6.82 µM
same,IC50,MGC-803,8.7 µM
same,IC50,MCF7,6.79 µM
C=C1C(=O)[C@@]23[C@H](O)C[C@@H]4C(C)(C)CCC[C@@]4(COC(C)=O)[C@@H]2[C@@H](O)C[C@H]1[C@H]3OC(=O)c1ccccc1F,IC50,ECa-109 cell line [1],1.63 µM
same,IC50,TE-1,3.63 µM
same,IC50,MGC-803,2.29 µM
same,IC50,MCF7,1.72 µM
C=C1C(=O)[C@@]23[C@H](O)C[C@@H]4C(C)(C)CCC[C@@]4(COC(C)=O)[C@@H]2[C@@H](O)C[C@H]1[C@H]3OC(=O)c1cccc(C)c1,IC50,ECa-109 cell line [1],0.37 µM
same,IC50,TE-1,0.32 µM
same,IC50,MGC-803,0.31 µM
same,IC50,MCF7,0.29 µM
C=C1C(=O)[C@@]23[C@H](O)C[C@@H]4C(C)(C)CCC[C@@]4(COC(C)=O)[C@@H]2[C@@H](O)C[C@H]1[C@H]3OC(=O)c1ccccc1Br,IC50,ECa-109 cell line [1],0.51 µM
same,IC50,TE-1,0.37 µM
same,IC50,MGC-803,0.52 µM
same,IC50,MCF7,0.46 µM
C=C1C(=O)[C@@]23[C@H](O)C[C@@H]4C(C)(C)CCC[C@@]4(COC(C)=O)[C@@H]2[C@@H](O)C[C@H]1[C@H]3OC(=O)c1cccc(Cl)c1,IC50,ECa-109 cell line [1],0.4 µM
same,IC50,TE-1,0.41 µM
same,IC50,MGC-803,0.41 µM
same,IC50,MCF7,0.36 µM

# From ChEMBL document CHEMBL4706557, “Synthesis and in vitro and in vivo biological evaluation of novel derivatives of flexicaulin A as antiproliferative agents” (Eur J Med Chem, 2020)
